{"source": "patent US10472401B2", "about": "“Peptides and combination of peptides for use in immunotherapy against ovarian cancer and other cancers” (immatics biotechnologies GmbH, priority 2015, dated 2019)", "key": {"[1]": {"system": "lung tumorigenesis", "details": "TLE1 transgenic mice; cited from earlier work"}, "[2]": {"target": "T1, IMPDH2 (Homo sapiens, UniProt P12268)", "T1 construct": "host or cells: patients with AML and CML in blast crisis", "T1 sequence (P12268 2-514 limits assumed)": "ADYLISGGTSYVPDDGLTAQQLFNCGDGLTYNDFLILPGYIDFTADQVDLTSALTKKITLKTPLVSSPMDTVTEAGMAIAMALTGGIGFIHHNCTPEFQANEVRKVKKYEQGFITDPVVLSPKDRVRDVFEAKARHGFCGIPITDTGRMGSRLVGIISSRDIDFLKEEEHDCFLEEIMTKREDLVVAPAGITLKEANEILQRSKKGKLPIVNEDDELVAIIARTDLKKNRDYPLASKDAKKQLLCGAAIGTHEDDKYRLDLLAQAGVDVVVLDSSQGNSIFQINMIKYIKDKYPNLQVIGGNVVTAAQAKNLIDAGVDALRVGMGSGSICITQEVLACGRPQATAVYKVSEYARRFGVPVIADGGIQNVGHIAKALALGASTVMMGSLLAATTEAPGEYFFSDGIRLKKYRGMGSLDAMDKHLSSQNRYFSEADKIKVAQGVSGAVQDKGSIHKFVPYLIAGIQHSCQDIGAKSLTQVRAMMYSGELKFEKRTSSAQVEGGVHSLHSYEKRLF", "details": "patients with acute myeloid leukemia and chronic myeloid leukemia in blast crisis; cited from earlier work"}, "[3]": {"system": "human tumor cell lines", "details": "cited from earlier work"}, "[4]": {"target": "ATR (Homo sapiens, UniProt Q13535)", "sequence (Q13535 whole entry)": "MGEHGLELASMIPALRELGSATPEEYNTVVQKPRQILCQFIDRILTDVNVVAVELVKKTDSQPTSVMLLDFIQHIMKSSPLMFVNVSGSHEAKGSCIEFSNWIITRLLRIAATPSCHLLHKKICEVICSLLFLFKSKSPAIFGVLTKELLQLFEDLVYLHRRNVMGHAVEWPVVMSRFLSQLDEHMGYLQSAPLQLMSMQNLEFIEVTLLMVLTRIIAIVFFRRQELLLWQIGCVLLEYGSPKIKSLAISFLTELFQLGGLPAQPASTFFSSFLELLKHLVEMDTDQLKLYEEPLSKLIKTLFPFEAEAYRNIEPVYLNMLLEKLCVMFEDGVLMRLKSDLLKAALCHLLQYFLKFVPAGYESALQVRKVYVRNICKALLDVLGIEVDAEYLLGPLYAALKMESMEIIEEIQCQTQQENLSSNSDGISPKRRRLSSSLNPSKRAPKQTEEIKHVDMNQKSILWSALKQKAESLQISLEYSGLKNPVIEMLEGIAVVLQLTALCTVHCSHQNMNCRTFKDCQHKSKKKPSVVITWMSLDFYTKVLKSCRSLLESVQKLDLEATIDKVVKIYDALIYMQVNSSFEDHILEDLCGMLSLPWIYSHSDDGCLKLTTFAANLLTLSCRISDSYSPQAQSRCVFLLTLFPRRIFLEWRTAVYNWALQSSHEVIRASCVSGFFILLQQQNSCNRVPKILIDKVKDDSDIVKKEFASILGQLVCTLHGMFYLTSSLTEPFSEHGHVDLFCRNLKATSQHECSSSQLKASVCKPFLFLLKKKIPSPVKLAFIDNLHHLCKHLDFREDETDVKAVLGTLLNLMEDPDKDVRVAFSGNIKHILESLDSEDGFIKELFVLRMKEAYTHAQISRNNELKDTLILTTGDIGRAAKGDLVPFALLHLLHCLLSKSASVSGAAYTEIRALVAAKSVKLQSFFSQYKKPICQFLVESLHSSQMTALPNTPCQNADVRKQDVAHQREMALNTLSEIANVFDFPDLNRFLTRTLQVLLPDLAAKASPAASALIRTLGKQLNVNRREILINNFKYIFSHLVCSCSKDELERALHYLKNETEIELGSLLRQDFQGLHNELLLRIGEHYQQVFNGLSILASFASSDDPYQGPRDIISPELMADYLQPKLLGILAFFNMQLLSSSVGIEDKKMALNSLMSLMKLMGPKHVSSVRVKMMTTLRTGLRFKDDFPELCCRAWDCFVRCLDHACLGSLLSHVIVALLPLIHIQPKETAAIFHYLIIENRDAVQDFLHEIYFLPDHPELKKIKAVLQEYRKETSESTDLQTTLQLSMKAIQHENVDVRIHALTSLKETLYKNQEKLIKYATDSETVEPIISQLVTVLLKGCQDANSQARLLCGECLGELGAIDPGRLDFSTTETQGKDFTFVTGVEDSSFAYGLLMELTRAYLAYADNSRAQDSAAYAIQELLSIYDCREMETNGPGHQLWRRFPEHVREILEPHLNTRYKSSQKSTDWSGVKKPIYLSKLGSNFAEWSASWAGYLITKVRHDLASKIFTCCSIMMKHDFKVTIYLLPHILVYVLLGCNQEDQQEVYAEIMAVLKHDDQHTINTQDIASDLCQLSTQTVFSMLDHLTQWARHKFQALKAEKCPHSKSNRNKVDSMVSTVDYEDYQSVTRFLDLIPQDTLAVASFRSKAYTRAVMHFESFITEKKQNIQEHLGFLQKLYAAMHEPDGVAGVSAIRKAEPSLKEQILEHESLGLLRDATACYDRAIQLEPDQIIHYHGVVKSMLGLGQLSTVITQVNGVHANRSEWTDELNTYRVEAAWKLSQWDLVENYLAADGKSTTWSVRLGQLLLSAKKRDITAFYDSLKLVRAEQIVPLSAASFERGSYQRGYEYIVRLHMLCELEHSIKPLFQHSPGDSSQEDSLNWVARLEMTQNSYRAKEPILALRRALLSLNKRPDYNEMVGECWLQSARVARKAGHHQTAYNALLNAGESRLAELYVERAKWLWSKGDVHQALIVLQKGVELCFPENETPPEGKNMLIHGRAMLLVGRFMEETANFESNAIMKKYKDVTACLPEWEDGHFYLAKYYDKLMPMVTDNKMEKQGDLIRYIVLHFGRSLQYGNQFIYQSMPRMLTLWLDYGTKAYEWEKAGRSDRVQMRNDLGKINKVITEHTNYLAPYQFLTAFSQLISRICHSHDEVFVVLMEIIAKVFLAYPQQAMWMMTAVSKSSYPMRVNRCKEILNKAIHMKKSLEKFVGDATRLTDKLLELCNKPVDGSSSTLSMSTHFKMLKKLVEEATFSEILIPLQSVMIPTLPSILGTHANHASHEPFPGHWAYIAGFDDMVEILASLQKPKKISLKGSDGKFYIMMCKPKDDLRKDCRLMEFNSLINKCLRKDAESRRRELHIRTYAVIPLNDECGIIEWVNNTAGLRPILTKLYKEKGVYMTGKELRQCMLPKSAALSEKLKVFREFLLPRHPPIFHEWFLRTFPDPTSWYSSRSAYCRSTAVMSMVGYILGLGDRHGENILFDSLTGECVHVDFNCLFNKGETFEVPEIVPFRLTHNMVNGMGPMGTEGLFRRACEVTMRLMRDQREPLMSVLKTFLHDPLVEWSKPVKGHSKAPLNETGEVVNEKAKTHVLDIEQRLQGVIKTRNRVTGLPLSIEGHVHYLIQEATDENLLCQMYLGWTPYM", "sequence (Q8WXE1 whole entry partner)": "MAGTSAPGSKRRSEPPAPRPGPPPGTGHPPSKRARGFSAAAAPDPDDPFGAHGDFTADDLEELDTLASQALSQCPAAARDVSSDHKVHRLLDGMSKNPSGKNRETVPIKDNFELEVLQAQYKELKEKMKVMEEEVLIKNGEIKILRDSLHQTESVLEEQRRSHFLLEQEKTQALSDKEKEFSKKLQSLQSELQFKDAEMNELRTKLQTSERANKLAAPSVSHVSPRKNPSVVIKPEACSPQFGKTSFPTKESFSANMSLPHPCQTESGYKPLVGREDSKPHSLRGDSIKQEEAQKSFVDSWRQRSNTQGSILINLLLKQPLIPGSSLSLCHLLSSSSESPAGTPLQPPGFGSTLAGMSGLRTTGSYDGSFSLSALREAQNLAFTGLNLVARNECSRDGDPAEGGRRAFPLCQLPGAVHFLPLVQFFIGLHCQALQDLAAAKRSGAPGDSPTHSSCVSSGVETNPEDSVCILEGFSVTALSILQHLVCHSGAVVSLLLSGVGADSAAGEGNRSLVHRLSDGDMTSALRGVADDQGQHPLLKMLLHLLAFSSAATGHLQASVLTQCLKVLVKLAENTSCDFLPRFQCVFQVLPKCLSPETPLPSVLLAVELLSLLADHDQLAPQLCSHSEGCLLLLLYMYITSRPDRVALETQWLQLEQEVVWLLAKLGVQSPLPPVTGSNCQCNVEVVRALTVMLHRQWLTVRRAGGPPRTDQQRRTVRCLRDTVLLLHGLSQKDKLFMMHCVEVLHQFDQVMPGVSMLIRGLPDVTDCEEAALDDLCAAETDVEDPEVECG", "details": "pancreatic cancer cells in vitro, pancreatic tumor xenografts in vivo; cited from earlier work"}, "[5]": {"system": "ovarian cancer", "details": "clinical studies; cited from earlier work"}, "[6]": {"target": "T2, ALDH5A1 (Homo sapiens, UniProt P51649)", "T2 construct": "host or cells: breast ductal carcinoma models", "T2 sequence (P51649 48-535)": "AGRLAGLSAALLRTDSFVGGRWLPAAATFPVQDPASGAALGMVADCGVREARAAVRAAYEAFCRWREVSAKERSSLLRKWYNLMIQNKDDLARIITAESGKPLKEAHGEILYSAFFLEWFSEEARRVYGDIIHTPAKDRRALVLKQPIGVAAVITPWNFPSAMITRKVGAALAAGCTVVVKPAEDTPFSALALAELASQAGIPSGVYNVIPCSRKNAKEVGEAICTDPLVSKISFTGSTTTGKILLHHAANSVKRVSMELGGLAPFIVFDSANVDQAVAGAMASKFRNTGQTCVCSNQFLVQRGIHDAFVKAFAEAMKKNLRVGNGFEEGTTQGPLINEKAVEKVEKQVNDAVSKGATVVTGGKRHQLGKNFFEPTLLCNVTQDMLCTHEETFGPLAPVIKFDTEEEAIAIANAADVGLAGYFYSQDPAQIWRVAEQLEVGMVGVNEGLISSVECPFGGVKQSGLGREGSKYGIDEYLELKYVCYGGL", "details": "cited from earlier work"}, "[7]": {"target": "T3, PLA2G6 (Homo sapiens, UniProt O60733)", "T3 construct": "host or cells: ovarian cancer cells", "T3 sequence (O60733 1-806)": "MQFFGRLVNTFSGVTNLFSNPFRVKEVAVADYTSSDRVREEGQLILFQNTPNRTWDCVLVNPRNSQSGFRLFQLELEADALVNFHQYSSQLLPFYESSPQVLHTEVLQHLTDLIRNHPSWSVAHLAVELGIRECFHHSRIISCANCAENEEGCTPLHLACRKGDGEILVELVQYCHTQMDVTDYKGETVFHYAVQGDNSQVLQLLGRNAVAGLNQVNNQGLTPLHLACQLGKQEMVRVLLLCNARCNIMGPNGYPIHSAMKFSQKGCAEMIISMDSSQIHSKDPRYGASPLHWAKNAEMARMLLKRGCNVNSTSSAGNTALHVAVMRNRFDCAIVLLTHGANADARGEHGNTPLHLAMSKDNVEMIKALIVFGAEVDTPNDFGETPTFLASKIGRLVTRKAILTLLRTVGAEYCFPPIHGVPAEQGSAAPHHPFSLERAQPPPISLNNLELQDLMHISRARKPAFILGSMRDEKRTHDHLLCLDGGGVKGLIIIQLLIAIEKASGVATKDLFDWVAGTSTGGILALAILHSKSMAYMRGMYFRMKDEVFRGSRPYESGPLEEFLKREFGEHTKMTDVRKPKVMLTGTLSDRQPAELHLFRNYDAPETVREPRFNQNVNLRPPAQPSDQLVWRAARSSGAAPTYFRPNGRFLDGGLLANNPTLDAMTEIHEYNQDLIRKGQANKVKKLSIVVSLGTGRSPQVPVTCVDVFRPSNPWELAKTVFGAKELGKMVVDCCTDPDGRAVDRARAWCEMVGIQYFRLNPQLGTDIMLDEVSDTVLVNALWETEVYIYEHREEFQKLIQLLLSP", "details": "cited from earlier work"}, "[8]": {"system": "UBE2V1", "details": "cited from earlier work"}, "[9]": {"target": "HLA-A*02:01 (Homo sapiens, UniProt P04439, D140Y/D185E/D98H/E176V/E277Q/G131W/G231S/I119V/I121R/I166T/I218V/L300P/L318F/N151K/N90K/P208A/P217A/Q86G/Q94H/R138H/R169H/T345S)", "assay": "MHC binding assay (UV-ligand exchange, ELISA of stabilized MHC complexes)", "details": "MHC class I binding score; binding to HLA-A*02:01 ranged by peptide exchange yield (UV-ligand exchange, ELISA)", "how_it_was_run": "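Peptide-MHC complexes made by UV-ligand exchange, cleaving a UV-sensitive placeholder peptide and replacing it with the test peptide. Exchange yield measured by ELISA: streptavidin-captured monomers (diluted 100-fold, 1 h, 37 °C) detected with HRP anti-β2m and TMB, absorbance at 450 nm.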"}, "[10]": {"system": "CD8+ T cells", "assay": "In vitro immunogenicity: priming of CD8+ T cells with aAPCs loaded with peptide/MHC and anti-CD28, multimer staining", "assay_type": "cell-based, human", "details": "for Wells positive [%]: HLA-A*02 restricted peptides, percentage of positive wells (among evaluable)", "description": "In order to obtain information regarding the immunogenicity of the TUMAPs of the present invention, the inventors performed investigations using an in vitro T-cell priming assay based on repeated stimulations of CD8+ T cells with artificial antigen presenting cells (aAPCs) loaded with peptide/MHC complexes and anti-CD28 antibody.\nIn order to perform in vitro stimulations by artificial antigen presenting cells loaded with peptide-MHC complex (pMHC) and anti-CD28 antibody, the inventors first isolated CD8+ T cells from fresh HLA-A*02 leukopheresis products via positive selection using CD8 microbeads (Miltenyi Biotec, Bergisch-Gladbach, Germany) of healthy donors obtained from the University clinics Mannheim, Germany, after informed consent.\nPBMCs and isolated CD8+ lymphocytes were incubated in T-cell medium (TCM) until use consisting of RPMI-Glutamax (Invitrogen, Karlsruhe, Germany) supplemented with 10% heat inactivated human AB serum (PAN-Biotech, Aidenbach, Germany), 100 U/ml Penicillin/100 μg/ml Streptomycin (Cambrex, Cologne, Germany), 1 mM sodium pyruvate (CC Pro, Oberdorla, Germany), 20 μg/ml Gentamycin (Cambrex). 2.5 ng/ml IL-7 (PromoCell, Heidelberg, Germany) and 10 U/ml IL-2 (Novartis Pharma, Nürnberg, Germany) were also added to the TCM at this step.\nGeneration of pMHC/anti-CD28 coated beads, T-cell stimulations and readout was performed in a highly defined in vitro system using four different pMHC molecules per stimulation condition and 8 different pMHC molecules per readout condition.\nThe purified co-stimulatory mouse IgG2a anti human CD28 Ab 9.3 (Jung et al., 1987) was chemically biotinylated using Sulfo-N-hydroxysuccinimidobiotin as recommended by the manufacturer (Perbio, Bonn, Germany). Beads used were 5.6 μm diameter streptavidin coated polystyrene particles (Bangs Laboratories, Illinois, USA).\npMHC used for positive and negative control stimulations were A*0201/MLA-001 (peptide […] (SEQ ID NO. 664) from modified Melan-A/MART-1) and A*0201/DDX5-001 ([…] from DDX5, SEQ ID NO. 665), respectively.\n800.000 beads/200 μl were coated in 96-well plates in the presence of 4×12.5 ng different biotin-pMHC, washed and 600 ng biotin anti-CD28 were added subsequently in a volume of 200 μl. Stimulations were initiated in 96-well plates by co-incubating […] CD8+ T cells with 2×10^5 washed coated beads in 200 μl TCM supplemented with 5 ng/ml IL-12 (PromoCell) for 3 days at 37° C. Half of the medium was then exchanged by fresh TCM supplemented with 80 U/ml IL-2 and incubating was continued for 4 days at 37° C. This stimulation cycle was performed for a total of three times. For the pMHC multimer readout using 8 different pMHC molecules per condition, a two-dimensional combinatorial coding approach was used as previously described (Andersen et al., 2012) with minor modifications encompassing coupling to 5 different fluorochromes. Finally, multimeric analyses were performed by staining the cells with Live/dead near IR dye (Invitrogen, Karlsruhe, Germany), CD8-FITC antibody clone SK1 (BD, Heidelberg, Germany) and fluorescent pMHC multimers. For analysis, a BD LSRII SORP cytometer equipped with appropriate lasers and filters was used. Peptide specific cells were calculated as percentage of total CD8+ cells. Evaluation of multimeric analysis was done using the FlowJo software (Tree Star, Oregon, USA). In vitro priming of specific multimer+ CD8+ lymphocytes was detected by comparing to negative control stimulations.\nExemplary flow cytometry results after TUMAP-specific multimer staining for two peptides of the invention are shown in FIG. 3 together with corresponding negative controls."}}, "data": [{"molecule": "CC(/C=C/C(=O)NO)=C\\[C@@H](C)C(=O)c1ccc(N(C)C)cc1", "note": "[trichostatin A]", "values": [{"measurement": "lung tumorigenesis", "setting": "[1]", "value": "significantly inhibited lung tumorigenesis"}]}, {"molecule": "NC(=O)c1csc([C@@H]2O[C@H](CO)[C@@H](O)[C@H]2O)n1", "note": "[tiazofurin]", "values": [{"measurement": "clinical response", "setting": "[2]", "value": "good clinical response"}]}, {"molecule": "CN1CC[C@H](c2c(O)cc(O)c3c(=O)cc(-c4ccccc4Cl)oc23)[C@H](O)C1", "note": "[Flavopiridol]", "values": [{"measurement": "human tumor cell proliferation", "setting": "[3]", "value": "inhibition of human tumor cell proliferation"}]}, {"molecule": "CNCc1ccc(-c2cc(-c3nc(-c4ccc(S(=O)(=O)C(C)C)cc4)cnc3N)on2)cc1", "note": "[VE-822]", "values": [{"measurement": "radiosensitization and chemosensitization", "setting": "[4]", "value": "radiosensitize and chemosensitize pancreatic cancer cells in vitro and pancreatic tumor xenografts in vivo"}]}, {"molecule": "catumaxomab", "values": [{"measurement": "clinical results in ovarian cancer patients", "setting": "[5]", "value": "promising results in phase II and III studies"}]}, {"molecule": "oregovomab", "values": [{"measurement": "clinical results in ovarian cancer patients", "setting": "[5]", "value": "promising results in phase II and III studies"}]}, {"molecule": "NC(=O)c1cccc([C@@H]2O[C@H](CO)[C@@H](O)[C@H]2O)c1", "note": "[benzamide riboside]", "values": [{"measurement": "clinical response", "setting": "[2]", "value": "good clinical response"}]}, {"molecule": "CCCC(CCC)C(=O)O", "note": "[valproic acid]", "values": [{"measurement": "net proliferation of breast ductal carcinoma models", "setting": "[6]", "value": "inhibit net proliferation"}]}, {"molecule": "MORAb-003: anti-folate receptor alpha antibody", "values": [{"measurement": "clinical results in ovarian cancer patients", "setting": "[5]", "value": "only conferred limited clinical benefit to ovarian cancer patients"}]}, {"molecule": "O=C1O/C(=C/Br)CCC1c1cccc2ccccc12", "note": "(stereo not drawn) [Bromoenol lactone]", "values": [{"measurement": "apoptosis and cell cycle of ovarian cancer cells", "setting": "[7]", "value": "increase in apoptosis in ovarian cancer cells as well as inducing cell cycle arrest in S- and G2/M-phases"}]}, {"molecule": "Cc1ccc(S(=O)(=O)c2ccc([N+](=O)[O-])o2)cc1", "note": "[NSC697923]", "values": [{"measurement": "proliferation and survival of diffuse large B-cell lymphoma cells", "setting": "[8]", "value": "inhibit proliferation and survival of diffuse large B-cell lymphoma cells"}]}, {"molecule": "bevacizumab", "values": [{"measurement": "clinical results in ovarian cancer patients", "setting": "[5]", "value": "appears to be advantageous"}]}, {"molecule": "603 (FLIEPEHVNTV; listed as Homo sapiens) [compound 603]", "values": [{"measurement": "Peptide exchange", "setting": "[9]", "value": "″++″ (≥20% = ++)"}, {"measurement": "Wells positive [%]", "setting": "[10]", "value": "″+″ (<20% = +)"}]}, {"molecule": "460 (AMLEKNYKL; listed as Homo sapiens) [compound 460]", "values": [{"measurement": "Peptide exchange", "setting": "[9]", "value": "″++++″ (≥75% = ++++)"}, {"measurement": "Wells positive [%]", "setting": "[10]", "value": "″+″ (<20% = +)"}]}, {"molecule": "283 (ALYIGDGYVIHLA; listed as Homo sapiens) [compound 283]", "values": [{"measurement": "Peptide exchange", "setting": "[9]", "value": "″+++″ (≥50% = +++)"}, {"measurement": "wells", "setting": "[10]; HLA class I peptides, positive wells", "value": "+ (<20% = +)"}]}, {"molecule": "511 (FLDPYCSASV; listed as Homo sapiens) [compound 511]", "values": [{"measurement": "Peptide exchange", "setting": "[9]", "value": "″++″ (≥20% = ++)"}, {"measurement": "Wells positive [%]", "setting": "[10]", "value": "″+″ (<20% = +)"}]}, {"molecule": "113 (GLLPTPLFGV; listed as Homo sapiens) [compound 113]", "values": [{"measurement": "Peptide exchange", "setting": "[9]", "value": "″+++″ (≥50% = +++)"}, {"measurement": "Wells positive [%]", "setting": "[10]", "value": "″+″ (<20% = +)"}]}, {"molecule": "ipilimumab", "values": [{"measurement": "clinical results in ovarian cancer patients", "setting": "[5]", "value": "significant anti-tumor effects in ovarian cancer patients"}]}, {"molecule": "247 (VLLPNDLLEKV; listed as Homo sapiens) [compound 247]", "values": [{"measurement": "Peptide exchange", "setting": "[9]", "value": "″+++″ (≥50% = +++)"}, {"measurement": "Wells positive [%]", "setting": "[10]", "value": "″+″ (<20% = +)"}]}, {"molecule": "118 (KLIDNNINV; listed as Homo sapiens) [compound 118]", "values": [{"measurement": "Peptide exchange", "setting": "[9]", "value": "″+++″ (≥50% = +++)"}, {"measurement": "Wells positive [%]", "setting": "[10]", "value": "″+″ (<20% = +)"}]}]}
